Assay [1] addresses ALK tyrosine kinase receptor (Homo sapiens) (UniProt Q9UM73). The conditions noted are these: 5 nM.
Description: Inhibition of N-terminal GST-tagged human ALK cytoplasmic domain (1058 to 1620 amino acids) expressed in baculovirus expression system at 5 nM relative to control
Assay [2] in a line: Antitumor activity against mouse NIH-3T3/EML4-ALK cells implanted in Balb/c mouse assessed as inhibition of tumor growth at 10 mg/kg, po dosed once daily for 5 days and measured every other day relative to untreated control. The assay is classed as functional. The conditions noted are these: NIH3T3, po, 120 h, read-out: TGI.
The target in assay [3] is EML4-ALK (Homo sapiens, UniProt Q9UM73). Briefly: Inhibition of recombinant FLAG-tagged EML4-ALK fusion protein (unknown origin) expressed in mouse BA/F3 cells using peptide substrate and ATP incubated for 1 hr by HTRF assay.
Assay [4] relates to NCI-H2228. Briefly: Antitumor activity against EML4-ALK fusion protein harboring human NCI-H2228 cells xenografted in NOD/SCID mouse assessed as inhibition of tumor growth at 1 mg/kg, po dosed once daily for 14 days starting 3 weeks of tumor cell inoculation and measured every other day relative to untreated control. Format: functional. (Xenograft models place foreign cells or tissue in a host animal.)

The target of assay [5] is EML4-ALK (Homo sapiens, UniProt Q9UM73+Q9HC35). Briefly: Inhibition of recombinant FLAG-tagged EML4-ALK fusion protein (unknown origin) expressed in mouse BA/F3 cells assessed as inhibition of cell growth incubated for 2 days by alamar blue dye based assay.

Activity calls are given as the source filed them. The calls are words filed in the database; no cut-off is given here.

This is an account of results in ChEMBL document CHEMBL4418479, “Diamino heterocyclic carboxamide compound” (2016).

Usually inhibition stands for the drop in the measured response relative to a control, in per cent. Lower therefore signals little suppression. As usually defined, the IC50 is the midpoint of a concentration-inhibition curve.

Chain of ALK tyrosine kinase receptor (Homo sapiens) (Q9UM73 19-1620 limits assumed): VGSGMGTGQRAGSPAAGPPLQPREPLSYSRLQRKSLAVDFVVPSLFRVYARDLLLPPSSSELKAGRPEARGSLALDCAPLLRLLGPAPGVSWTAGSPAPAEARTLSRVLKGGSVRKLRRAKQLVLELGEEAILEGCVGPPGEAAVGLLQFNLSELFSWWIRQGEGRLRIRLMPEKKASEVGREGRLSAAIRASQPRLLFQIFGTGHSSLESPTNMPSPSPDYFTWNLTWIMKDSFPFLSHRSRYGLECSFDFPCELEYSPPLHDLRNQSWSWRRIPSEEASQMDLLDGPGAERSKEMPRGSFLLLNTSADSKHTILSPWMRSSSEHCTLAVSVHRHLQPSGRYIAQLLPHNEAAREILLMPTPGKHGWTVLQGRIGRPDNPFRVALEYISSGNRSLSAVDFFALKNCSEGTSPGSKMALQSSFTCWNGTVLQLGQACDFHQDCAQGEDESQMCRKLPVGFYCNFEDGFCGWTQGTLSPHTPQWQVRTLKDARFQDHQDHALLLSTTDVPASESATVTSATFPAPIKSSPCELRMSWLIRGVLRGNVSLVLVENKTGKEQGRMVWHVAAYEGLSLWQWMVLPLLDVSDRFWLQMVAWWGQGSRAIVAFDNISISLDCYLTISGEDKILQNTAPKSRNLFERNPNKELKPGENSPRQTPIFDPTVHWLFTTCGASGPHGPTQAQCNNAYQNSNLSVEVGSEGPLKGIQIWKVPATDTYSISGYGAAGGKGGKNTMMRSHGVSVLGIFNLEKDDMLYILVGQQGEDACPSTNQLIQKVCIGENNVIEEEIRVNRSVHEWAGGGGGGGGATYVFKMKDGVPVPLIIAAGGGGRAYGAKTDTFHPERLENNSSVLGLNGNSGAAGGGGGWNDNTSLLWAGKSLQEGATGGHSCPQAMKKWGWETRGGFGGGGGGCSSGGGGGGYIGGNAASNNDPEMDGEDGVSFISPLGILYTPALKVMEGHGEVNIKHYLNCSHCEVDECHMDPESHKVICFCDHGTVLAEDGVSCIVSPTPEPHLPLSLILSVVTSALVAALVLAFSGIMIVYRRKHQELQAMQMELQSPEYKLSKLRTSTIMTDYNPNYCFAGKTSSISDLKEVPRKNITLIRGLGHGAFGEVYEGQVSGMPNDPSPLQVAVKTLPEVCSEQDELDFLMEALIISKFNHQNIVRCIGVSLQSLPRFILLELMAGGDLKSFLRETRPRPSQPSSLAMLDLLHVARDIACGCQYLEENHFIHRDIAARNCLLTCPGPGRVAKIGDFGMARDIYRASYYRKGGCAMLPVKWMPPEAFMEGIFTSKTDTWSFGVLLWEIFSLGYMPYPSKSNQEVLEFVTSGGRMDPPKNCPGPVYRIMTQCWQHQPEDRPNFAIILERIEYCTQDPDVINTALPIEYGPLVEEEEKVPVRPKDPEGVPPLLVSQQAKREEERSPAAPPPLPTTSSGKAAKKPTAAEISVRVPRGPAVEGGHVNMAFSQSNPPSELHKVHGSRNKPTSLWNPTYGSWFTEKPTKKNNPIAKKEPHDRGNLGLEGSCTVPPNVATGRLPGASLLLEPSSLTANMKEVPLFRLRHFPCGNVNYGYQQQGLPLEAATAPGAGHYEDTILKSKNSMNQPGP
Chain of EML4-ALK (Homo sapiens, UniProt Q9UM73) (Q9UM73 whole entry, the tested form may be a part): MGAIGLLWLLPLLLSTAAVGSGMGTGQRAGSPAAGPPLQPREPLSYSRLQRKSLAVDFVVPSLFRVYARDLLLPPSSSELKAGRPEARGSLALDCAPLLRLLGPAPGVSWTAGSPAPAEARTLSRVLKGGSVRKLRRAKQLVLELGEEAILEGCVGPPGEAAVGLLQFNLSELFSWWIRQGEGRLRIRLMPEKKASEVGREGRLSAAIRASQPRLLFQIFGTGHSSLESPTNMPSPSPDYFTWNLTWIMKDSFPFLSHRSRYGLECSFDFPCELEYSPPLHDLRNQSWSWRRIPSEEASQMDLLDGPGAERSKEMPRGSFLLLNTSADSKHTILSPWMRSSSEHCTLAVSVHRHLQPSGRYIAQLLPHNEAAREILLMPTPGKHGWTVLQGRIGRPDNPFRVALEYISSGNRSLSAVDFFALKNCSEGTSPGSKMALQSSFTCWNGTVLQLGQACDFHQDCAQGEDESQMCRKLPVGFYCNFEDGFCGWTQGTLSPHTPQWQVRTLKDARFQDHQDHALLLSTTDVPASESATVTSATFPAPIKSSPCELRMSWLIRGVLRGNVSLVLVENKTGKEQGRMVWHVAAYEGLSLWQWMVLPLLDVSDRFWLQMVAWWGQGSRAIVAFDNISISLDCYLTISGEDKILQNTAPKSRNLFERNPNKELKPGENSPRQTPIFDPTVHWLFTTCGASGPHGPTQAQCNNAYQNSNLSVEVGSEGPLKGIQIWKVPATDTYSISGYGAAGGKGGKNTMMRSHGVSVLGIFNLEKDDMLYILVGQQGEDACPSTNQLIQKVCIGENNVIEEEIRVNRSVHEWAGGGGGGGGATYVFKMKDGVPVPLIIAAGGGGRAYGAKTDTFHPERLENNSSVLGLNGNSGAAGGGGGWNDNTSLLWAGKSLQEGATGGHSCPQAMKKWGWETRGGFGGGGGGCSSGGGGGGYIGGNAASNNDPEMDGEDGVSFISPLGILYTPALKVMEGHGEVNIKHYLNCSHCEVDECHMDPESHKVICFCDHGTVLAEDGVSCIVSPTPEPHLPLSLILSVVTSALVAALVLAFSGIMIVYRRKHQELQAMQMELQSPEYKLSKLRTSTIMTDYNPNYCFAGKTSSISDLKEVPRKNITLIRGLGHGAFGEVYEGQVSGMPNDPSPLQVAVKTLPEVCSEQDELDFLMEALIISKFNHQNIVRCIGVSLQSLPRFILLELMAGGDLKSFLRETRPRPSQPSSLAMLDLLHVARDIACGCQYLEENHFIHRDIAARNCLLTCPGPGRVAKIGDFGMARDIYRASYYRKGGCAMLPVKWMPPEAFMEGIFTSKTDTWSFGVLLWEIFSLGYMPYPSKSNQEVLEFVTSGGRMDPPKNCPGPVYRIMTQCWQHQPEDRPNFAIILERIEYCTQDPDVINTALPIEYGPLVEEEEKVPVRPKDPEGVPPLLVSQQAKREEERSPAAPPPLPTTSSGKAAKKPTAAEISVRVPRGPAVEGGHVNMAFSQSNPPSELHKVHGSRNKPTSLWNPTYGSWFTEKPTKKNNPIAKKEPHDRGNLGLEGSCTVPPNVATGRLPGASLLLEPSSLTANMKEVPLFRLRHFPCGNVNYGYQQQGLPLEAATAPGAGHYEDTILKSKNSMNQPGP
Chain of EML4-ALK (Homo sapiens, UniProt Q9UM73) (Q9HC35 whole entry, further chain, the tested form may be a part): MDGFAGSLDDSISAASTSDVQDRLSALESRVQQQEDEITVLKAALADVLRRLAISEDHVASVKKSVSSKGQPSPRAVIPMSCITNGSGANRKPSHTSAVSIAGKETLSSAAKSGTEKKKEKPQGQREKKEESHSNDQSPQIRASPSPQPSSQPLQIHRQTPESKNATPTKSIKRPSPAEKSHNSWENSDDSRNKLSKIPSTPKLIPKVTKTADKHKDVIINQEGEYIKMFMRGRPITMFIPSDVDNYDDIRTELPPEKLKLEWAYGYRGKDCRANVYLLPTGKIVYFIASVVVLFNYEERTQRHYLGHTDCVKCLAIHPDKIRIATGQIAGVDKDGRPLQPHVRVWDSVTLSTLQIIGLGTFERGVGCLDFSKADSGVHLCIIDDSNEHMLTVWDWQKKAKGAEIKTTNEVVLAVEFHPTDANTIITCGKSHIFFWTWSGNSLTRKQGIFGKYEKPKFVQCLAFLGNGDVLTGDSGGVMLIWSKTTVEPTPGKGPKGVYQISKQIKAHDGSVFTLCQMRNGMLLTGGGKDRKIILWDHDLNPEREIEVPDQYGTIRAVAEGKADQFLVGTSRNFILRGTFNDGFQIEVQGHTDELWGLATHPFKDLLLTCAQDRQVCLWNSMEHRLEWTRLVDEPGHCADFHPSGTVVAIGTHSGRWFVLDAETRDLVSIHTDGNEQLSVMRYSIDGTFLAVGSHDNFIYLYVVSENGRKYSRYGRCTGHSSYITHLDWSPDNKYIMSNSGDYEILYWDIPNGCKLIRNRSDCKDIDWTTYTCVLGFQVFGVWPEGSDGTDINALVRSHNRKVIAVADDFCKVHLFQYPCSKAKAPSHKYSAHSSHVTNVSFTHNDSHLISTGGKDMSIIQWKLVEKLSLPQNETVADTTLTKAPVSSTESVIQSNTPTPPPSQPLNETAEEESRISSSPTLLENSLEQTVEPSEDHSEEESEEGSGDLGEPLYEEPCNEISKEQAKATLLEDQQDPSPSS
Chain of EML4-ALK (Homo sapiens, UniProt Q9UM73+Q9HC35) (Q9UM73 whole entry, the tested form may be a part): as the sequence (Q9UM73 whole entry, the tested form may be a part) above
Chain of EML4-ALK (Homo sapiens, UniProt Q9UM73+Q9HC35) (Q9HC35 whole entry, the tested form may be a part): as the sequence (Q9HC35 whole entry, further chain, the tested form may be a part) above

As for `CCc1nc(C(N)=O)c(Nc2ccc(N3CCC(N4CCN(C)CC4)CC3)c(C)c2)nc1NC1CCOCC1`, the inhibition in assay [1] was more than 50%.
In turn, `COc1cc(Nc2nc(NC3CCOCC3)c(C(C)C)nc2C(N)=O)ccc1N1CCN(C)CC1` had an inhibition in assay [1] of more than 50%. Besides, the inhibition in vivo at 10 mg/kg in assay [2] turned out to be 63%.
`CCc1nc(C(N)=O)c(Nc2ccc(N3CCC(N4CCN(C)CC4)CC3)c(C)c2)nc1N[C@H]1CC[C@@](O)(C(C)C)CC1`: in assay [3], the IC50 was found to be 4.1 nM.
Regarding `CC(C)c1nc(C(N)=O)c(Nc2ccc(N3CCN(C)CC3)cc2)nc1NC1CCOCC1`, the inhibition in assay [1] was more than 50%.
With `CCc1nc(C(N)=O)c(Nc2ccc(N3CCC(N4CCN(C)CC4)CC3)c(C)c2)nc1N[C@H]1CC[C@@](O)(CC)CC1`, in assay [3], the IC50 was found to be 2.8 nM.
For `CCc1nc(C(N)=O)c(Nc2ccc(N3CCN(C)CC3)c(F)c2)nc1NC1CCOCC1`, in assay [1], the inhibition is more than 50%.
For the molecule `CCc1nc(C(N)=O)c(Nc2ccc(N3CCC(N4CCN(C)CC4)CC3)c(C(F)(F)F)c2)nc1N[C@H]1CC[C@H](O)CC1`, the inhibition in assay [1] is more than 50%. In assay [2], the inhibition in vivo at 10 mg/kg was 81%.
Turning to `CC(C)c1nc(C(N)=O)c(Nc2ccc(N3CCC(N4CCN(C)CC4)CC3)c(C(F)(F)F)c2)nc1N[C@H]1CC[C@H](O)CC1`, in assay [1], the inhibition was more than 50%.
As to `CC(C)c1nc(C(N)=O)c(Nc2ccc(N3CCC(N4CCN(C)CC4)CC3)cc2)nc1NC1CCOCC1`, in assay [1], the inhibition was more than 50%. The inhibition in vivo at 1 mg/kg in assay [4] (read-out: TGI) amounted to 69%.
Take `CCc1nc(C(N)=O)c(Nc2ccc(N3CCC(N4CCN(C)CC4)CC3)c(C)c2)nc1N[C@H]1CC[C@](O)(CC)CC1`: the 50% inhibitory concentration (IC50) in assay [3] is 3.1 nM.
Still for that read-out and setting: as for `CCc1nc(C(N)=O)c(Nc2ccc(N3CCC(N4CCN(C)CC4)CC3)c(C)c2)nc1N[C@H]1CC[C@](O)(C(C)C)CC1`, the figure is 2.6 nM.
`CC(C)c1nc(C(N)=O)c(Nc2ccc(N3CCN(C)CC3)cc2)nc1N[C@H]1CC[C@H](O)CC1`: the inhibition in assay [1] is more than 50%.
On the same count and under the same terms, as for `CCc1nc(C(N)=O)c(Nc2ccc(N3CCC(N4CCN(C)CC4)CC3)cc2)nc1N[C@H]1CC[C@H](O)CC1`, the figure is more than 50%.
Take `NC(=O)c1cnc(N[C@@H]2CCCC[C@@H]2N)nc1Nc1ccc(-c2ccc(N3CCOCC3)cc2)cc1` (racemic): the TGI result in assay [4] was “inactive”.
`CCc1nc(C(N)=O)c(Nc2ccc(N3CCN(C4CCN(C)CC4)CC3)c(C)c2)nc1NC1CCOCC1`: in assay [1], the inhibition was more than 50%.
On the same count and under the same terms, as for `CCc1nc(C(N)=O)c(Nc2ccc(N3CCC(N4CCN(C)CC4)CC3)c(C)c2)nc1N[C@H]1CC[C@](C)(O)CC1`, the figure is more than 50%.
Same read-out and setting: as for `CCc1nc(C(N)=O)c(Nc2ccc(N3CCC(N4CCN(C)CC4)CC3)c(OC)c2)nc1NC1CCOCC1`, the figure is more than 50%.
Still for that read-out and setting: the result for `Cc1cc(Nc2nc(N[C@H]3CC[C@H](O)CC3)c(Cl)nc2C(N)=O)ccc1N1CCC(N2CCN(C)CC2)CC1` reads more than 50%.
On to `CCc1nc(C(N)=O)c(Nc2cccc(C)c2)nc1NCCN(C)C`, for which, in assay [4], the TGI entry is “inactive”.
Turning to `CCc1nc(C(N)=O)c(Nc2ccc(N3CCN(C)CC3)cc2)nc1N[C@H]1CC[C@H](O)CC1`, the inhibition in assay [1] was more than 50%.
For the molecule `CCc1nc(C(N)=O)c(Nc2ccc(N3CCC(N4CCN(C)CC4)CC3)c(C)c2)nc1N[C@H]1CC[C@H](O)CC1`, the inhibition in assay [1] is more than 50%. The inhibition in vivo at 10 mg/kg in assay [2] stood at 92%.
In assay [1], `CCc1nc(C(N)=O)c(Nc2ccc(N3CCC(N4CCN(C)CC4)CC3)cc2)nc1NC1CCOCC1` came in with an inhibition of more than 50%. Besides, the inhibition in vivo at 10 mg/kg in assay [2] turned out to be 79%.
The matching figures for `CCc1nc(C(N)=O)c(Nc2ccc(N3CCN(C(C)C)CC3)c(C)c2)nc1N[C@H]1CC[C@H](O)CC1`: more than 50% and 81%.
For the molecule `CCc1nc(C(N)=O)c(Nc2ccc(N3CCC(N4CCN(C)CC4)CC3)c(C)c2)nc1N[C@H]1CC[C@@](C)(O)CC1`, the inhibition in assay [1] was more than 50%.
Consider `CCc1nc(C(N)=O)c(Nc2ccc3cnn(C)c3c2)nc1N[C@H]1CC[C@H](O)CC1`, for which the half-inhibitory concentration (IC50) in assay [5] is 76 nM.
